Source: publication PMC10817170, “Effect of an NHE3 inhibitor in combination with an NPT2b inhibitor on gastrointestinal phosphate absorption in Rodent models” (PLOS ONE, 2024)
Where “and” joins values, the source holds several entries; their conditions need not be identical. Equal values may be shown once.

Experiments:
Human SGLT1 = biological target: T1, Human SGLT1 (Homo sapiens, UniProt P13866); assay: SGLT1 activity assay (14C-alpha-methyl-D-glucopyranoside uptake in CHO cells); format: cell-based; conditions: geometric mean, n=4
T1 construct: expressed in transfected cells; host or cells: CHO cells, constitutive expression
T1 sequence (P13866 1-664): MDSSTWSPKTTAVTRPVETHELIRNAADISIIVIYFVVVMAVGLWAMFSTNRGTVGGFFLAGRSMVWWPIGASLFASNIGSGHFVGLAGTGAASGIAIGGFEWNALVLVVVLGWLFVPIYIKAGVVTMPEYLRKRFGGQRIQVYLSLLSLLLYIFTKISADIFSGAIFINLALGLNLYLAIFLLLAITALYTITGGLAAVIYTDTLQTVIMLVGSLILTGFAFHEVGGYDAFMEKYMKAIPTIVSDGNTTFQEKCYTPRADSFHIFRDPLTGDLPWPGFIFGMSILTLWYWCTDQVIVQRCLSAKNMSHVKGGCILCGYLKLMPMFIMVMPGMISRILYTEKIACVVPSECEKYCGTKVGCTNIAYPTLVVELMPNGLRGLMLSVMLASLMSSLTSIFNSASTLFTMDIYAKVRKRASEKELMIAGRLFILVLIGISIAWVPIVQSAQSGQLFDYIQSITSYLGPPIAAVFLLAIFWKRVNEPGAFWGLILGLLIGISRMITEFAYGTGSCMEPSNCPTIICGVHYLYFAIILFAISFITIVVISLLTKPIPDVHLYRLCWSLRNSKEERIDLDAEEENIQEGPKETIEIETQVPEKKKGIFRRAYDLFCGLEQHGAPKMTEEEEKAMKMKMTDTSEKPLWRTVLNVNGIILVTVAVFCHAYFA
Experimental: Generation of constitutive human Pit-2 and SGLT1 overexpressing CHO cells and activity assays measuring the uptake of ^33P phosphate for 45 minutes at 20°C for Pit-2 and ^14C-α-methyl-D-glucopyranoside for 120 minutes at 37°C for SGLT1, were also described previously.

NHE3 = test system: T2, NHE3; assay: Sodium excretion in urine after oral NaH2PO4 bolus in mice; format: in vivo; conditions: sodium bolus plus 3 mg/kg po, urine 4 h, mean ± SEM
T2 construct: from tissue; host or cells: intestine of living C57Bl/6 mice
Experimental: The effect of LY3304000 on sodium and phosphate excretion in urine was also assessed in mice. A dosing solution of 3 mg/kg LY3304000 for a 10 mL/kg dose volume was formulated in 1% HEC. An NaH2PO4 dosing solution at a 690 mg/kg with a […] dosing volume was made in sterile water. Male C57Bl/6 mice were fasted for 4 hours with access to water and then orally dosed at 10 mL/kg with 1% HEC vehicle or 3 mg/kg LY3304000. Fifteen minutes later, mice were orally dosed with either sterile water or NaH2PO4 solution, and then immediately transferred to a mouse holder on a 96-well plate for spot urine collection. Urine samples were collected for 4 hours post sterile water or NaH2PO4 dose. Urinary sodium, creatinine, and phosphorus (as a measure of phosphate) were determined using a clinical biochemistry analyzer. The urinary sodium-to-creatinine ratio was calculated and compared between vehicle and LY3304000 treated groups.

[1] = test system: intestinal phosphate absorption; assay: Phosphate absorption in rats: 33P in plasma (15 min) and recovered in gastrointestinal tract (4 h), single agents and combination; format: in vivo; conditions: 0.4 mg/kg LY3304000, 10 mg/kg LY3358966 or both
Experimental: We also evaluated the effect of LY3304000 and LY3358966 in combination on phosphate absorption in rats by measuring radioactive phosphate recovered in either plasma or the gastrointestinal (GI) tract. In this combination study, two vehicles were used. One is 1% HEC vehicle for making LY3304000 dosing solution, another is 0.46% PVP-VA vehicle contained in LY3358966 SDD. To make the LY3358966 dosing solution, an appropriate amount of LY3358966-SDD was weighed for a 10 mg/kg API dosing solution with 5 mL/kg dosing volume and dissolved in water. To make the LY3304000 dosing solution, an appropriate amount of LY3304000 was weighed for a 0.4 mg/kg dosing solution with 5 mL/kg dosing volume and dissolved in 1% HEC. The Radiolabeled Phosphate Dosing Solutions was made as described above. Following 4-hour fasting with access to water, male SD rats were orally dosed at 10 mL/kg with either two vehicles, an LY3358966 dosing solution and 1% HEC vehicle, an LY3304000 dosing solution and 0.46% PVP-VA vehicle, or an LY3304000 and LY3358966 dosing solutions, combined 1:1 by volume. Fifteen minutes later, Radiolabeled Phosphate Dosing Solution was orally dosed in a 2 mL volume. Fifteen minutes after the radiolabeled phosphate dose, blood was collected by retro orbital bleeding, and plasma was prepared. Radioactivity (dpm) in 20-μL plasma was measured by scintillation counting. The mole amount of phosphate uptake in the plasma was calculated as described above. Four hours post radioactive phosphate dose, the animals were sacrificed by asphyxiation with CO2 followed by cervical dislocation and then the stomach, small intestine, large intestine, and feces were collected and weighed. The tissues and feces were digested in 20 mL or 10 mL of 1 N NaOH, respectively, overnight at 37°C. A 100 μL sample of the homogenates were dispensed into scintillation vials and mixed with 10 mL of Optiphase Supermax scintillation fluid (PerkinElmer), and radioactivity (dpm) was measured by scintillation counting. Very little radioactivity was detected in the feces at 4 hours post radioactive phosphate dose. The percentage of radiolabeled phosphate recovered in the gastrointestinal tissue was defined as radioactivity (dpm) recovered in each fraction compared to the amount of radioactivity (dpm) administered. The mole amount of phosphate uptake into plasma in vehicle and LY3358966 and LY3304000 alone groups were compared to the LY3358966 and LY3304000 combination group using One-way ANOVA with Dunnett’s multiple comparisons. Percent recovery of ^33P phosphate in the rat gastrointestinal tract was analyzed by two-way analysis of variance (ANOVA) in JMP 12.1 to test for additivity of the effects of LY3304000 and LY3358966 on inhibiting phosphate absorption.

[2] = Pharmacokinetics study after oral dosing; format: in vivo, rats
Experimental: Following oral dosing of the free base from of LY3304000 in a vehicle of 1% Hydroxyethylcellulose, 0.25% Polysorbate 80, and 0.05% Antifoam in purified water, the level of LY3304000 in rat blood 2.5-hour post dose was below the limit of quantification of LY330400 (0.815 nM with LC/MS method). Further characterization of the pharmacokinetic properties of LY3304000 was hampered by an inability to identify an appropriate vehicle for IV dosing.

## CN1Cc2c(Cl)cc(Cl)cc2[C@H](c2cccc(S(=O)(=O)NCCOCCOCCN/C(=N\C(N)=O)NCCCCN/C(=N/C(N)=O)NCCOCCOCCNS(=O)(=O)c3cccc([C@@H]4CN(C)Cc5c(Cl)cc(Cl)cc54)c3)c2)C1.Cl.Cl [LY3304000, (Z)-[[4-[[(Z)-N’-carbamoyl-N-[2-[2-[2-[[3-[(4S)-6,8-dichloro-2-methyl-3,4-dihydro-1H-isoquinolin-4-yl]phenyl]sulfonylamino]ethoxy]ethoxy]ethyl]carbamimidoyl]amino]butylamino]-[2-[2-[2-[[3-[(4S)-6,8-dichloro-2-methyl-3,4-dihydro-1H-isoquinolin-4-yl]phenyl]sulfonylamino]ethoxy]ethoxy]ethylamino]methylene]urea dihydrochloride]
Human SGLT1
  IC50: 6.6 µM
NHE3
  Urinary sodium-to-creatinine ratio: 14.6 ± 1.7 mg/mg
[1]; 15 min post 33P phosphate, vehicle 166, mean ± SEM, n=8
  phosphate uptake into plasma: 118 nmol and 118 ± 8 nmol
[1]; 4 h
  percentage of radiolabeled phosphate recovered, Feces: <0.1%
  percentage of radiolabeled phosphate recovered, Large Intestine: 18.16 +/- 2.58%
  percentage of radiolabeled phosphate recovered, Small Intestine: 8.64 +/- 0.32%
  percentage of radiolabeled phosphate recovered, Stomach: 3.9 +/- 0.49%
[1]; 4 h post 33P phosphate, stomach, small intestine, large intestine and feces, vehicle 25%
  percentage of 33P recovered in GI tract, total: 31 ± 7% and 31% and 30.7 +/- 2.43%
[1]; Rattus norvegicus, 0.25 h, 15 min post 33P phosphate, versus vehicle, read-out: inhibition of phosphate uptake into plasma
  inhibition at 0.4 mg/kg: 29%
[2]; oral dosing
  detection in plasma following oral dosing: could not be detected
[2]; rat, whole blood, oral, free base, 2.5-hour post dose, below limit of quantification (LC/MS), read-out: level in rat blood
  concentration at 2.5 h: < 0.815 nM
